Measured values published in paper PMC10122656, “Siglec-6 mediates the uptake of extracellular vesicles through a noncanonical glycolipid binding pocket” (Nature Communications, 2023).
Values joined by “and” are separate entries in the source; they are usually repeats but may differ in a detail not shown here. Equal values may be shown once.

Experiments:
Assay in all cases: Cell assay (liposome/EV binding, flow cytometry)
[1] = target: T1, CD33 WT CHO cells (Homo sapiens, UniProt P20138); assay type: cell-based; conditions: 3 mol% ganglioside liposomes, replicates
T1 construct: expressed in transfected cells
T1 sequence (P20138 18-364): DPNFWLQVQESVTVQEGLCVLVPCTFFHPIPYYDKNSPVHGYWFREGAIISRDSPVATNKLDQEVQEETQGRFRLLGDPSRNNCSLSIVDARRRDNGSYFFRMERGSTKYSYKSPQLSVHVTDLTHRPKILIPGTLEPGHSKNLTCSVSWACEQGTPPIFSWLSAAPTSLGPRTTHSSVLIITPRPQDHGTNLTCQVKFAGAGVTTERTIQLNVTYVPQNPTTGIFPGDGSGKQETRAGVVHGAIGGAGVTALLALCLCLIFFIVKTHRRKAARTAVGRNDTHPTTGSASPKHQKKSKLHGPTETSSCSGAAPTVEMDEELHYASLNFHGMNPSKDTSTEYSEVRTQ
Protocol: (§1) Stock lipids (DSPC, Cholesterol, PEG45–DSPE) solutions were prepared by solvating the lipids in chloroform. An appropriate volume of each lipid solution was transferred to a glass test tube to reach the desired mol% of the component. The chloroform was then removed under N2 gas to yield a lipid thin film. Once dry, 100 µL of DMSO was added to the lipid-containing test tube and then the functional lipids (ganglioside, AF647–PEG45–DSPE, Siglec ligand–PEG45–DSPE, pHrodo–PEG45–DSPE, NGL) was added from their respect DMSO stock solution. The lipid mixture was then stored at −80 °C until completely frozen at which point excess DMSO was removed via lyophilization. Dry lipids were then stored at −80 °C until they were extruded. Lipid suppliers can be found in Supplementary Table 4.
(§2) Dry lipids were then hydrated in 1 mL of PBS. The lipids were then sonicated in a bath sonicator in a cycle of 1 min on, 5 min off for a total of five cycles. Liposomes were then extruded using an Avanti mini extruder first using an 800 nm filter and then a 100 nm filter yielding liposomes that were 130 ± 35 nm (Supplementary Table 5) measured using a Malvern Panalytical Zetasizer Nano S. Liposomes were stored at 4 °C.
(§3) 200,000 cells/well were plated into a 96-well U-bottom microplate and centrifuged at 300 × g for 5 min. The cells were then resuspended in 50 µL of 50 µM liposome/50 µg/mL (protein concentration) of EV solution in DMEM F12 5% FBS and incubated at 37 °C for 30 min. Excess liposomes were then removed via centrifuged at 300 × g for 5 min followed by washing the cells with FACS solution. The cells were then resuspended in (1:250 V/V) anti-Siglec-flow buffer (1% V/V FBS, 500 µM, EDTA Hank’s Balanced Salt Solution pH 7.4), solution and left to rest on ice for 30 min. The cells were then centrifuged again at 300 × g for 5 min and the cells were resuspended in FACS buffer solution and were then ready for analysis by flow cytometry. Information regarding antibody clone, catalog number supplier, label isotype, and dilution can be found in Supplementary Table 6. The Siglec-positive cells were gated on for liposome-binding analysis (Supplementary Fig. 1b).
(§4) Flow cytometry measurements were collected on a 5-laser Fortessa X-20 (BD Bioscience). All the resulting data were analyzed using FlowJo (10.5.3) software (BD Biosciences).

[2] = target: T2, Siglec-8 WT CHO cells (Homo sapiens, UniProt Q9NYZ4); assay type: cell-based; conditions: Sig-8 WT; 3 mol% ganglioside liposomes; replicates
T2 construct: expressed in transfected cells
T2 sequence (Q9NYZ4 17-499): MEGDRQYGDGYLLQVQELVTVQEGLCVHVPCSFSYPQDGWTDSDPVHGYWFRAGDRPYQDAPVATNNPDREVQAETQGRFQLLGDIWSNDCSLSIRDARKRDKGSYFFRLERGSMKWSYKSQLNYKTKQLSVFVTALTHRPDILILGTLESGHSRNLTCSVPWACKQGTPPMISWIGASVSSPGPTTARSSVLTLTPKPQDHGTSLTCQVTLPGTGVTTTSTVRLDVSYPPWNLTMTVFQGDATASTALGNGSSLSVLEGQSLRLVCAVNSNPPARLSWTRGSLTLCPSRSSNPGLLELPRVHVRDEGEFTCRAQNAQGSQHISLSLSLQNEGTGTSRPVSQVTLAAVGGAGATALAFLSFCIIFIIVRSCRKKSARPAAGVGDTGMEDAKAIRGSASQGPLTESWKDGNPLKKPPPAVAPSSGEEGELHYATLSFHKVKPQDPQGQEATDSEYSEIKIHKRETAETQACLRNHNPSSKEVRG
Protocol: as §1, §2, §3, §4

[3] = target: T3, Siglec-11 R120A CHO cells (Homo sapiens, UniProt Q96RL6, R132A); assay type: cell-based; conditions: Sig-11 R120A; 3 mol% ganglioside liposomes; replicates
T3 construct: expressed in transfected cells
T3 sequence (Q96RL6 28-698 R132A): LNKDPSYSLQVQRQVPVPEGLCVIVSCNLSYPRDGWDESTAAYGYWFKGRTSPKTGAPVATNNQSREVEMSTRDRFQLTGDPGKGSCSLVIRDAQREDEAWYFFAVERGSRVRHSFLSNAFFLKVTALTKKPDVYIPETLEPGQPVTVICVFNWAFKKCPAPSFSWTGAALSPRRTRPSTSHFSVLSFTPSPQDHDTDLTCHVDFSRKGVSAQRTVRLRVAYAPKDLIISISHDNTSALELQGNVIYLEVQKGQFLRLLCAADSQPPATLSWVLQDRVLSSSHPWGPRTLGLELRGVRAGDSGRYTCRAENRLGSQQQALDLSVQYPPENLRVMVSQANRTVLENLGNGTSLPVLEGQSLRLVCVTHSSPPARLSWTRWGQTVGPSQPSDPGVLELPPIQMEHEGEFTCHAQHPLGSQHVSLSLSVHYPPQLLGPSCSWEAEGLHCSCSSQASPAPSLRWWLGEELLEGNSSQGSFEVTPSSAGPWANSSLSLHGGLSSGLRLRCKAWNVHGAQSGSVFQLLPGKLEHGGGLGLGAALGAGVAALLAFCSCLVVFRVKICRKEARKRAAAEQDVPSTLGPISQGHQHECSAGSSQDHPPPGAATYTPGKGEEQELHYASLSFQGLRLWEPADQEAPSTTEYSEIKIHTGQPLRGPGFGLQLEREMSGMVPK
Protocol: as §1, §2, §3, §4

[4] = target: T4, Siglec-10 R119A CHO cells (Homo sapiens, UniProt Q96LC7, R119A); assay type: cell-based; conditions: Sig-10 R119A; 3 mol% ganglioside liposomes; replicates
T4 construct: expressed in transfected cells
T4 sequence (Q96LC7 17-697 R119A): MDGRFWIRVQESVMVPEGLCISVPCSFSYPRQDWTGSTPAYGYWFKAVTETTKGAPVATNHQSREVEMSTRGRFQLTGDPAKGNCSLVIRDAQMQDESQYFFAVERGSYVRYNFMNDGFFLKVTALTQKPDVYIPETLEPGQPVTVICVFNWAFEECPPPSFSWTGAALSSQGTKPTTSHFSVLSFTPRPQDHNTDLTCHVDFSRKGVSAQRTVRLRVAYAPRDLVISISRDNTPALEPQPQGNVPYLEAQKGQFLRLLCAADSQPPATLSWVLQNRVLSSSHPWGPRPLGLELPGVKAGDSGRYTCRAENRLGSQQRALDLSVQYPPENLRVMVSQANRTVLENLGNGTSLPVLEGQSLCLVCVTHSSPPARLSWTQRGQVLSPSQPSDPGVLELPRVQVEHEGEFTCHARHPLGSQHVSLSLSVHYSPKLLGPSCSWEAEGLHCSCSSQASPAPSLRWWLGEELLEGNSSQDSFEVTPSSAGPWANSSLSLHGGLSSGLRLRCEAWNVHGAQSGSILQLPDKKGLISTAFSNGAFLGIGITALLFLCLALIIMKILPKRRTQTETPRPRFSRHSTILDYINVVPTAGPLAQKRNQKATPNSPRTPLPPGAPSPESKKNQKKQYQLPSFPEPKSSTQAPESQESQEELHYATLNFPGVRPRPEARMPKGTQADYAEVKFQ
Protocol: as §1, §2, §3, §4

[5] = target: T5, CD33 R119A CHO cells (Homo sapiens, UniProt P20138, R119A); assay type: cell-based; conditions: 3 mol% ganglioside liposomes, replicates
T5 construct: expressed in transfected cells
T5 sequence (P20138 18-364 R119A): as the sequence (P20138 18-364) above, with R102A counted along it
Protocol: as §1, §2, §3, §4

[6] = target: T6, WT Siglec-1 CHO cells (Homo sapiens, UniProt Q9BZZ2); assay type: cell-based; design: GM1 liposome binding to Siglec-1 CHO cells, flow cytometry (Fig. 1b) / Binding of liposomes with increasing ganglioside content against Siglec-1 CHO cells (Fig. 1c) / Liposome binding to Siglec-1-expressing CHO cells in the cell assay (Fig. 1f): unit not given here; conditions: for Binding of liposomes with increasing ganglioside content against Siglec-1 CHO cells (Fig. 1c) / log10(MFI AF647) of GLL relative to log10(MFI AF647) of the same GLL against UT CHO cells (Fig. 2a): replicates; for log10(MFI AF647) of GLL relative to log10(MFI AF647) of the same GLL against UT CHO cells (Fig. 2a): Sig-1 WT, 3 mol% ganglioside liposomes
T6 construct: expressed in transfected cells
T6 sequence (Q9BZZ2 20-1709): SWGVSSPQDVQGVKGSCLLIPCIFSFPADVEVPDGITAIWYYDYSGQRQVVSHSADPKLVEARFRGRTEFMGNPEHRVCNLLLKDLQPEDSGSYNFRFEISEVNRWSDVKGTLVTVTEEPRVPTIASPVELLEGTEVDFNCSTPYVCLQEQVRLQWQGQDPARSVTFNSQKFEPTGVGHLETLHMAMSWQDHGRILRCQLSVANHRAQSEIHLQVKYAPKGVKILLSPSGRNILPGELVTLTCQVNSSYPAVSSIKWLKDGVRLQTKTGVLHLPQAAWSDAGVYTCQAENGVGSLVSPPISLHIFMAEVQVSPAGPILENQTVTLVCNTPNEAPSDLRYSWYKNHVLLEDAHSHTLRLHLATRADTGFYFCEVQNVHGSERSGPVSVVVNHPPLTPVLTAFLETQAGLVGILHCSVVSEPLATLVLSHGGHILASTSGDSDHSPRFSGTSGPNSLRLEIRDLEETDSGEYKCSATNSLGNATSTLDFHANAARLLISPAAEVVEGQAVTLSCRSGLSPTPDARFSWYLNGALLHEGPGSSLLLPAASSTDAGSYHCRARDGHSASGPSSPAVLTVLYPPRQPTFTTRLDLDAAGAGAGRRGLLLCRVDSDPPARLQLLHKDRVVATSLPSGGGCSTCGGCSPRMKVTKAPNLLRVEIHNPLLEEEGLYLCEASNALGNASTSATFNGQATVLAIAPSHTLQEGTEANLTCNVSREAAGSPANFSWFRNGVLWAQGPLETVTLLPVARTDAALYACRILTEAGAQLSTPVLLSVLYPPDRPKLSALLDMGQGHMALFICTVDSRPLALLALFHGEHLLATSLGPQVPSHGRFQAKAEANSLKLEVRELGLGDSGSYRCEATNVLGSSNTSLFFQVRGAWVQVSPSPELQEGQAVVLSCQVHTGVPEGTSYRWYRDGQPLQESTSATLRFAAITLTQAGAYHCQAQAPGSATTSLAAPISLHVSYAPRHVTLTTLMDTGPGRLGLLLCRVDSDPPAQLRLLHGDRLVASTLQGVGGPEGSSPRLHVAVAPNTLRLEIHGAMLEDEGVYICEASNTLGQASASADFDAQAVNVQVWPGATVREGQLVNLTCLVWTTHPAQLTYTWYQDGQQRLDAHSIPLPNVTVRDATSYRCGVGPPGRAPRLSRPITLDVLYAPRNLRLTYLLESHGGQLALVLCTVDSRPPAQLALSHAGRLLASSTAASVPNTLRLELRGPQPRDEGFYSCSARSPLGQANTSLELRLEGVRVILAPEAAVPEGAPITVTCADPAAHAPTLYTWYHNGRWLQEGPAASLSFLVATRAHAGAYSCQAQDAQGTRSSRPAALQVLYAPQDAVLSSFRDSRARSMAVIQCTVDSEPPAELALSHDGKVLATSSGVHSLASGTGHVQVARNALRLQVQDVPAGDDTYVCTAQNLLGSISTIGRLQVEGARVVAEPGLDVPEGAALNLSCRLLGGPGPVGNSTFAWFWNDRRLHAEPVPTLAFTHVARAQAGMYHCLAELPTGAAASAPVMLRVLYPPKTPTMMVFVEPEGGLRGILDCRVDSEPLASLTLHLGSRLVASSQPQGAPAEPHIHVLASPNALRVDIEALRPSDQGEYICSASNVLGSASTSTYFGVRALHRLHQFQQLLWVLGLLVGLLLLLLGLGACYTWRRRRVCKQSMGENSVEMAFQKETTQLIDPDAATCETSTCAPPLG
Protocol: as §1, §2, §3, §4

[7] = tested on: untransfected (UT) CHO cells; assay type: cell-based, Chinese Hamster; conditions: UT; 3 mol% ganglioside liposomes; replicates
Protocol: as §1, §2, §3, §4

Substance | log10(MFI AF647) of GLL relative to log10(MFI AF647) of the same GLL against UT CHO cells (Fig. 2a) [1] | log10(MFI AF647) of GLL relative to log10(MFI AF647) of the same GLL against UT CHO cells (Fig. 2a) [2] | log10(MFI AF647) of GLL relative to log10(MFI AF647) of the same GLL against UT CHO cells (Fig. 2a) [3] | log10(MFI AF647) of GLL relative to log10(MFI AF647) of the same GLL against UT CHO cells (Fig. 2a) [4] | log10(MFI AF647) of GLL relative to log10(MFI AF647) of the same GLL against UT CHO cells (Fig. 2a) [5] | Binding of liposomes with increasing ganglioside content against Siglec-1 CHO cells (Fig. 1c) ([6]; 0.00187 Ligand/nm2) | Binding of liposomes with increasing ganglioside content against Siglec-1 CHO cells (Fig. 1c) ([6]; 0.00933 Ligand/nm2) | Binding of liposomes with increasing ganglioside content against Siglec-1 CHO cells (Fig. 1c) ([6]; 0.0187 Ligand/nm2) | Binding of liposomes with increasing ganglioside content against Siglec-1 CHO cells (Fig. 1c) ([6]; 0.056 Ligand/nm2) | Binding of liposomes with increasing ganglioside content against Siglec-1 CHO cells (Fig. 1c) ([6]; 0.0933 Ligand/nm2) | Binding of liposomes with increasing ganglioside content against Siglec-1 CHO cells (Fig. 1c) ([6]; 0.373 Ligand/nm2) | log10(MFI AF647) of GLL relative to log10(MFI AF647) of the same GLL against UT CHO cells (Fig. 2a) [6] | ganglioside content threshold above which GLL binding to Siglec-1 CHO cells decreased ([6]; ganglioside titrated in GLLs) | log10(MFI AF647) of GLL relative to log10(MFI AF647) of the same GLL against UT CHO cells (Fig. 2a) [7] | Binding of liposomes with increasing ganglioside content against Siglec-1 CHO cells (Fig. 1c) ([6]; 0.187 Ligand/nm2) | trend of GLL binding to Siglec-1 CHO cells with ganglioside content ([6]; ganglioside titrated in GLLs)
GM2 | -0.08 and -0.05 and -0.02 and 0 | -0.18 (2×) and -0.15 and -0.17 | -0.07 (2×) and -0.06 (2×) | 0.05 and 0.07 (2×) and 0.06 | -0.01 and 0 and 0.03 (2×) | -0.01 | 0.11 (2×) and 0.13 and 0.16 | 1.01 and 0.97 and 1 and 1.02 | 0.8 and 0.79 and 0.78 (2×) | 0.59 and 0.57 and 0.55 (2×) | 0.24 and 0.22 (3×) | 1.23 and 1.19 and 1.21 and 1.2 | 1–3 mol% | 0.1 and 0.05 (2×) and 0.06 | – | –
GM3 | -0.19 and -0.14 and -0.12 and -0.08 | -0.22 and -0.18 and -0.2 and -0.17 | -0.13 (3×) and -0.12 | -0.12 (2×) and -0.13 (2×) | -0.06 (2×) and -0.03 (2×) | – | – | 0 | 0.02 | 0.04 | 0.33 and 0.36 and 0.26 | 0.19 and 0.16 and 0.23 and 0.17 | – | 0.01 (2×) and -0.01 and 0 | 0.13 (2×) and 0.12 and 0.14 and 0.16 (4×) | progressive increase in GLL binding up to 20 mol%
GM4 | -0.13 and -0.11 and -0.09 and -0.02 | -0.15 (2×) and -0.14 and -0.13 | -0.11 (2×) and -0.1 (2×) | 0 and -0.02 and 0.02 and 0.01 | -0.05 (2×) and -0.02 (2×) | – | – | – | – | – | – | 0.04 and 0.02 (2×) and -0.02 | – | 0.02 and -0.01 (2×) and 0 | – | –
GQ1b | -0.12 (2×) and -0.14 and -0.09 | -0.02 (2×) and -0.04 and 0.24 | -0.19 (2×) and -0.22 and -0.18 | -0.06 (2×) and -0.07 and -0.05 | -0.11 (2×) and -0.1 and -0.09 | – | – | – | – | – | – | 0.04 and 0.07 and 0.05 and 0.03 | – | 0.01 and -0.02 (2×) and 0.03 | – | –
GT1b | -0.09 and -0.1 and -0.08 and -0.06 | -0.21 and -0.22 and -0.23 and -0.19 | -0.17 (2×) and -0.16 and -0.19 | 0.05 and 0.03 (2×) and 0 | -0.06 | – | – | – | – | – | – | 0.29 (2×) and 0.32 and 0.23 | – | 0 (2×) and 0.01 and -0.01 | – | –
